For two molecules, EC50 results are on record in paper PMC8187946, “Development of Agonist-Based PROTACs Targeting Liver X Receptor” (Frontiers in Chemistry, 2021).

Assay [1] addresses T1, LXRβ (Homo sapiens, UniProt P55055).
T1 construct: gene NR1H2
T1 sequence (P55055 1-460): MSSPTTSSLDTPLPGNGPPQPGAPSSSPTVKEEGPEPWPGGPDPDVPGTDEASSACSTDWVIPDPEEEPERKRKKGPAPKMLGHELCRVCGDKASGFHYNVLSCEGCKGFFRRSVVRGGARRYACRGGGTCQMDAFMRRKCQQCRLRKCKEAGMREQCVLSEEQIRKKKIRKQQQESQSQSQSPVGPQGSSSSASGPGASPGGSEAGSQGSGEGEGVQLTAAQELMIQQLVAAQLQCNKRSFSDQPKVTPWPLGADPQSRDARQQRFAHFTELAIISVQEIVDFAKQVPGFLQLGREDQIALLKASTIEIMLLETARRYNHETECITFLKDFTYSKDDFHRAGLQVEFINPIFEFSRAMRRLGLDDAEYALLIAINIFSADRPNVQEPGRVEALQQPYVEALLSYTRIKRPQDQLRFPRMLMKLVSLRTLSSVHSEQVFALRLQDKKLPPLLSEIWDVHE
Description: TR-FRET coactivator assay (positive control, parent agonist). The class given is binding.

Assay [2] deals with T1, LXRβ. Description: TR-FRET coactivator assay. The class given is binding.

On to `O=C(O)Cc1cccc(OCCCN(Cc2cccc(C(F)(F)F)c2Cl)CC(c2ccccc2)c2ccccc2)c1` [GW3965], for which the EC50 at LXRβ [1] is 0.02 ± 0.0072 µM.
At LXRβ [2], `Cc1ncsc1-c1ccc(CNC(=O)[C@@H]2C[C@@H](O)CN2C(=O)[C@@H](NC(=O)COCCOCCOCCOCCOCCNC(=O)Cc2cccc(OCCCN(Cc3cccc(C(F)(F)F)c3Cl)CC(c3ccccc3)c3ccccc3)c2)C(C)(C)C)cc1` [compound 3, GW3965-PEG5-VH032] registered an EC50 of 0.031 ± 0.0044 µM.
